Experimental data as given in the kinase profiling compilation of Christmann-Franck et al. (2016).

Experiments:
Assay in all cases: radiometric filter-binding kinase assay, Kinase HotSpot
Conditions in all cases: compound 0.5 µM; ATP 10 µM
OXSR1 (human) = OXSR1 (human) (UniProt O95747)
TGFBR2 (human) = TGFBR2 (human) (UniProt P37173)
EPHA3 (human) = EPHA3 (human) (UniProt P29320)
PRKG2 (human) = PRKG2 (human) (UniProt Q13237)
SRPK3 (human) = SRPK3 (human) (UniProt Q9UPE1)
PAK2 (human) = PAK2 (human) (UniProt Q13177)
CAMK2G (human) = CAMK2G (human) (UniProt Q13555)
FGFR1 (human) = FGFR1 (human) (UniProt P11362)
PTK6 (human) = PTK6 (human) (UniProt Q13882)
RPS6KA6 KD1 KD2 (human) = RPS6KA6 KD1 KD2 (human) (UniProt Q9UK32)
PRKCB1 (human) = PRKCB1 (human) (UniProt P05771)
TTK (human) = TTK (human) (UniProt P33981)
INSR (human) = INSR (human) (UniProt P06213)
RIPK2 (human) = RIPK2 (human) (UniProt O43353)
CAMK4 (human) = CAMK4 (human) (UniProt Q16566)
NEK1 (human) = NEK1 (human) (UniProt Q96PY6)
NUAK2 (human) = NUAK2 (human) (UniProt Q9H093)
HCK (human) = HCK (human) (UniProt P08631)
HCK (human), sequence (P08631 whole entry, looked up): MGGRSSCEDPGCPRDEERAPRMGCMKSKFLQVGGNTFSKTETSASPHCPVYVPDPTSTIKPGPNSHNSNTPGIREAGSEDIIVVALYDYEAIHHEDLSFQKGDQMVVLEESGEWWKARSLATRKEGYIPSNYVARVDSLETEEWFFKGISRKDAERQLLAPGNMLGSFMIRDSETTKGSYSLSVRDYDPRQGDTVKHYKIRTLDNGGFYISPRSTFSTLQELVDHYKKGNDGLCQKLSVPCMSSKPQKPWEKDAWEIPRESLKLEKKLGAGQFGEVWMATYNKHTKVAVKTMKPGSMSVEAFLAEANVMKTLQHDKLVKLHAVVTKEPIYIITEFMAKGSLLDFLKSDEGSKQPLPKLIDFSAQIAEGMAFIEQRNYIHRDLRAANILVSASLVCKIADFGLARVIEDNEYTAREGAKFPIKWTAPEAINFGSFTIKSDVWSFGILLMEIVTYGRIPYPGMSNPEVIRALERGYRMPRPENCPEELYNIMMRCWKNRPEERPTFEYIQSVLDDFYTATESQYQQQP

PIM1 (human) = PIM1 (human) (UniProt P11309)
MET (human) = MET (human) (UniProt P08581)
NEK7 (human) = NEK7 (human) (UniProt Q8TDX7)
NEK7 (human), sequence (Q8TDX7 whole entry, looked up): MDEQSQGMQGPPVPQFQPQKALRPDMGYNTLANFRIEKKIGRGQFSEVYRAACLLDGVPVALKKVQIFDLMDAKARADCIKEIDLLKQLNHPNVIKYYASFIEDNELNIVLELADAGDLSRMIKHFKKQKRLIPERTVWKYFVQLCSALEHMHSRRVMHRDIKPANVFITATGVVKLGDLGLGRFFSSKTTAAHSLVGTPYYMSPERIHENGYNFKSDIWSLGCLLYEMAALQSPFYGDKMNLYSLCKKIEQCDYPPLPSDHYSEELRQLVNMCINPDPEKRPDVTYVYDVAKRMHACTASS

CSNK1G2 (human) = CSNK1G2 (human) (UniProt P78368)
CDC42BPB (human) = CDC42BPB (human) (UniProt Q9Y5S2)
MATK (human) = MATK (human) (UniProt P42679)
STK24 (human) = STK24 (human) (UniProt Q9Y6E0)
MUSK (human) = MUSK (human) (UniProt O15146)
SLK (human) = SLK (human) (UniProt Q9H2G2)
IKBKE (human) = IKBKE (human) (UniProt Q14164)
DYRK3 (human) = DYRK3 (human) (UniProt O43781)
MAP4K5 (human) = MAP4K5 (human) (UniProt Q9Y4K4)
MAP4K5 (human), sequence (Q9Y4K4 whole entry, looked up): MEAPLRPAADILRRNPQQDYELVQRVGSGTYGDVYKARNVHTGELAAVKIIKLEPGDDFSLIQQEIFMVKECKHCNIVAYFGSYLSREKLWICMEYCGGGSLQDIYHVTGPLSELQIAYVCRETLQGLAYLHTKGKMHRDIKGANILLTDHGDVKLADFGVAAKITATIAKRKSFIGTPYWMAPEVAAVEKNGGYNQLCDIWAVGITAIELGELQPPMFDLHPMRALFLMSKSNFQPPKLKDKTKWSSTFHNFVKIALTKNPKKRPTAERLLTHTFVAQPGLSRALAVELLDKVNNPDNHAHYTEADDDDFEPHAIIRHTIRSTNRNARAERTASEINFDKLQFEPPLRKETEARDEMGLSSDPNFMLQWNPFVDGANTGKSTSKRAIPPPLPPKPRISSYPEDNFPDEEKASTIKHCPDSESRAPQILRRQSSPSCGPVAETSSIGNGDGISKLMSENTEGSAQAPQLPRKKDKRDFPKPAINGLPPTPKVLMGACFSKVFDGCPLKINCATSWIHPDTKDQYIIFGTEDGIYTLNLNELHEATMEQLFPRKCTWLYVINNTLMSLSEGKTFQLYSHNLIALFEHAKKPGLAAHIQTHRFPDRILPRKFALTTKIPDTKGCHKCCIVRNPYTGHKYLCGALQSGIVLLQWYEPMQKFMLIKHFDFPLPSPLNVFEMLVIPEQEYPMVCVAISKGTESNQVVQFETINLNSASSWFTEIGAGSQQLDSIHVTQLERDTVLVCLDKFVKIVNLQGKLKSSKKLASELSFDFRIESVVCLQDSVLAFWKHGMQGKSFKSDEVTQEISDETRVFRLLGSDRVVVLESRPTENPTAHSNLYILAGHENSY

FYN (human) = FYN (human) (UniProt P06241)
PTK2 (human) = PTK2 (human) (UniProt Q05397)
MST4 (human) = MST4 (human) (UniProt Q9P289)
MST4 (human), sequence (Q9P289 whole entry, looked up): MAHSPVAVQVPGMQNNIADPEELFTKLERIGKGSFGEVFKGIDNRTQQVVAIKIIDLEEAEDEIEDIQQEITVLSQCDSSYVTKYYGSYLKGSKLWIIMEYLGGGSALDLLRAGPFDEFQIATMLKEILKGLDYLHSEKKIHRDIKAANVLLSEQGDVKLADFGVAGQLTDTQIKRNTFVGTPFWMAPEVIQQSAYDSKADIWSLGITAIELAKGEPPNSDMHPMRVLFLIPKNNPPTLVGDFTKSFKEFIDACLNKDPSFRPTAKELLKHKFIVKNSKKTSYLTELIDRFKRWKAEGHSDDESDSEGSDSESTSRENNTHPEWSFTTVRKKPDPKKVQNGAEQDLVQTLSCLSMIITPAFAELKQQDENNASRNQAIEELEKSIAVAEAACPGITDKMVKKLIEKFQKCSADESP

EPHA2 (human) = EPHA2 (human) (UniProt P29317)
MARK1 (human) = MARK1 (human) (UniProt Q9P0L2)
NTRK3 (human) = NTRK3 (human) (UniProt Q16288)
MAPK9 (human) = MAPK9 (human) (UniProt P45984)
EPHA8 (human) = EPHA8 (human) (UniProt P29322)
EPHA8 (human), sequence (P29322 whole entry, looked up): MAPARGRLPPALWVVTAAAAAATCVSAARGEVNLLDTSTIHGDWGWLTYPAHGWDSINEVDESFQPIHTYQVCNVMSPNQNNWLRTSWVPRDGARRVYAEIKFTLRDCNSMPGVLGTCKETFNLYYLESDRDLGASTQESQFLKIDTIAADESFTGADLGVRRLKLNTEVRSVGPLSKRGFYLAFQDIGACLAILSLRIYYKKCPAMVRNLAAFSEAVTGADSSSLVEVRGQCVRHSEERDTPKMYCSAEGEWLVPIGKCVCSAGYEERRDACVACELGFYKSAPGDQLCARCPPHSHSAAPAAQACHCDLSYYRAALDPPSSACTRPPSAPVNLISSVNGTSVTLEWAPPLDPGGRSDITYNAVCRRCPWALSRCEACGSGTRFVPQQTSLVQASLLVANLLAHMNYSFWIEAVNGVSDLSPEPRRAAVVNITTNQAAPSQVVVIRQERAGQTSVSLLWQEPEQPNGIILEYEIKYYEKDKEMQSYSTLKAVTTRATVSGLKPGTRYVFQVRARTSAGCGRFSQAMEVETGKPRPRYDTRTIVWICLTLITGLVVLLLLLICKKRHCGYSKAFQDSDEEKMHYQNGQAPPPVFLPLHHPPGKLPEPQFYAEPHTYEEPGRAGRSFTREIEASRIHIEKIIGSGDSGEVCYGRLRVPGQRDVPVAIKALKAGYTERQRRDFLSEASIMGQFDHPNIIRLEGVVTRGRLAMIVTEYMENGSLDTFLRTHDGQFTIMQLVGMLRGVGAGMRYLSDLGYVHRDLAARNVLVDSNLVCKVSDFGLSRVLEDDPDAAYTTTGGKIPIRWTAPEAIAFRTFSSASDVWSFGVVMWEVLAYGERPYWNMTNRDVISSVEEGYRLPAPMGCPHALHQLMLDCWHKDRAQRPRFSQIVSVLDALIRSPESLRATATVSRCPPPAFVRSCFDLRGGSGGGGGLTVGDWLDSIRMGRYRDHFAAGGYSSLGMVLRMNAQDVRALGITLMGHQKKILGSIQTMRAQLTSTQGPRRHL

ADRBK2 (human) = ADRBK2 (human) (UniProt P35626)
ADRBK2 (human), sequence (P35626 whole entry, looked up): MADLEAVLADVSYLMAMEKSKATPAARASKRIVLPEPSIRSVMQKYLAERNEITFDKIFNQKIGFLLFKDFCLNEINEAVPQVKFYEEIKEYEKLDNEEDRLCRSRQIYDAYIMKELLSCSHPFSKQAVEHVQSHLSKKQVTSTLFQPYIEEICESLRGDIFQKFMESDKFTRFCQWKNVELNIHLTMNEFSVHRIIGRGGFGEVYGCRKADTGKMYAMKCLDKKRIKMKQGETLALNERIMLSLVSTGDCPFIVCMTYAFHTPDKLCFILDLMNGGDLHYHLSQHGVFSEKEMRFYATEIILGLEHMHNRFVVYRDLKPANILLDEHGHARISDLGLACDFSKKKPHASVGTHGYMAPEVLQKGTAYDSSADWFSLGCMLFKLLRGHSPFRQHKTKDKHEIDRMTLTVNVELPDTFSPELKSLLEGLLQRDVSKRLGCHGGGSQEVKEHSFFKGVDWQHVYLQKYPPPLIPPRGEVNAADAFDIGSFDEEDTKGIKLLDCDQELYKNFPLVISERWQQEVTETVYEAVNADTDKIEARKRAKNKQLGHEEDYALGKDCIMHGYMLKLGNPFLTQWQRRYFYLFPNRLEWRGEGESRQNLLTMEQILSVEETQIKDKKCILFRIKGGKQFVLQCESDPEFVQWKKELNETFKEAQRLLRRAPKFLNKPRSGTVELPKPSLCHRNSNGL

PRKX (human) = PRKX (human) (UniProt P51817)
NEK6 (human) = NEK6 (human) (UniProt Q9HC98)
CAMK2A (human) = CAMK2A (human) (UniProt Q9UQM7)

OXSR1 (human), sequence (O95747 whole entry, looked up): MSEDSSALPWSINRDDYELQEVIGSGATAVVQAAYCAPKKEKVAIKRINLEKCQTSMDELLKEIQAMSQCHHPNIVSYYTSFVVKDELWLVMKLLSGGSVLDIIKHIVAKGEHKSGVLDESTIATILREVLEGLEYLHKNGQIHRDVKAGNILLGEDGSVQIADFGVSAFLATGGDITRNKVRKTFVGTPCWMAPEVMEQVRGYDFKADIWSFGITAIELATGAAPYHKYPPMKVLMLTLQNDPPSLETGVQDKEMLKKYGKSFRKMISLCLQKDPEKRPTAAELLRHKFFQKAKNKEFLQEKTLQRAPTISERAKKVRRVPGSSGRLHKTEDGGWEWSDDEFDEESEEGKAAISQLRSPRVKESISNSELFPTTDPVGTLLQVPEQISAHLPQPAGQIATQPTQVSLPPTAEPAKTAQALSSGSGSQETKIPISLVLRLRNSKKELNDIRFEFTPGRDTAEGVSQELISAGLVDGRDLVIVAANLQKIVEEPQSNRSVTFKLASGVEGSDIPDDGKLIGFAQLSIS
TGFBR2 (human), sequence (P37173 whole entry, looked up): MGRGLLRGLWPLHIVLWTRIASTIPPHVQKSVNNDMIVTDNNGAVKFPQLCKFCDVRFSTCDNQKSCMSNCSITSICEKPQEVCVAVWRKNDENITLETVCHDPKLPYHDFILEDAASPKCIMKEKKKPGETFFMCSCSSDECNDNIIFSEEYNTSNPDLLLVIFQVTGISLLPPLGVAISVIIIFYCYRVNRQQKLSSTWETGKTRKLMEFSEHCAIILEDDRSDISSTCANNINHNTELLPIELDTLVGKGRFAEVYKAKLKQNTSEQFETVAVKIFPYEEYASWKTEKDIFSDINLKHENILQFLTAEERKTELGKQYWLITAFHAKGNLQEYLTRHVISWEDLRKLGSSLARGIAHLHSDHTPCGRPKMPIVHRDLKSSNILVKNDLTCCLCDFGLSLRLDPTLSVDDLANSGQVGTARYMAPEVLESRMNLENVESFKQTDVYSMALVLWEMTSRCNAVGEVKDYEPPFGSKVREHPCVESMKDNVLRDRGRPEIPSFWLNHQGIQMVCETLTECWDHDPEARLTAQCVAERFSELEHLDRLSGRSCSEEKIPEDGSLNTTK

`CC(=O)c1ccc(N2CCOCC2)cc1O` gave a residual activity (OXSR1 (human)) of 115%, a residual activity (TGFBR2 (human)) of 132% and a residual activity (EPHA3 (human)) of 108%. It also gave a residual activity (PRKG2 (human)) of 107%, a residual activity (SRPK3 (human)) of 104% and a residual activity (PAK2 (human)) of 98.8%. For the same compound, the residual activity (CAMK2G (human)) was 90.2%, the residual activity (FGFR1 (human)) was 91.4% and the residual activity (PTK6 (human)) was 104%. It also gave a residual activity (RPS6KA6 KD1 KD2 (human)) of 95.1%, a residual activity (PRKCB1 (human)) of 96.3% and a residual activity (TTK (human)) of 103%. The residual activity (INSR (human)) was 94%, the residual activity (RIPK2 (human)) was 103% and the residual activity (CAMK4 (human)) was 93%. It also gave a residual activity (NEK1 (human)) of 114%, a residual activity (NUAK2 (human)) of 104% and a residual activity (HCK (human)) of 116%. It also gave a residual activity (PIM1 (human)) of 97.2%, a residual activity (MET (human)) of 122% and a residual activity (NEK7 (human)) of 101%. It also gave a residual activity (CSNK1G2 (human)) of 102%, a residual activity (CDC42BPB (human)) of 87.2% and a residual activity (MATK (human)) of 92.1%. For the same compound, the residual activity (STK24 (human)) was 99%, the residual activity (MUSK (human)) was 93.9% and the residual activity (SLK (human)) was 105%. It also gave a residual activity (IKBKE (human)) of 105%, a residual activity (DYRK3 (human)) of 93.9% and a residual activity (MAP4K5 (human)) of 102%. For the same compound, the residual activity (FYN (human)) was 103%, the residual activity (PTK2 (human)) was 107% and the residual activity (MST4 (human)) was 99.5%. It also gave a residual activity (EPHA2 (human)) of 107%, a residual activity (MARK1 (human)) of 96.7% and a residual activity (NTRK3 (human)) of 101%. The residual activity (MAPK9 (human)) was 105%, the residual activity (EPHA8 (human)) was 101% and the residual activity (ADRBK2 (human)) was 89.1%. The residual activity (PRKX (human)) was 105%, the residual activity (NEK6 (human)) was 96.5% and the residual activity (CAMK2A (human)) was 104%.

`CCN(CC)CCNC(=O)c1c(C)[nH]c(/C=C2\C(=O)Nc3ccc(Cl)cc32)c1C` gave a residual activity (OXSR1 (human)) of 80.1%, a residual activity (TGFBR2 (human)) of 113% and a residual activity (EPHA3 (human)) of 92.5%. It also gave a residual activity (PRKG2 (human)) of 82.6%, a residual activity (SRPK3 (human)) of 92.8% and a residual activity (PAK2 (human)) of 92.7%. It also gave a residual activity (CAMK2G (human)) of 8.13%, a residual activity (FGFR1 (human)) of 20.3% and a residual activity (PTK6 (human)) of 51.3%. For the same compound, the residual activity (RPS6KA6 KD1 KD2 (human)) was 10.5%, the residual activity (PRKCB1 (human)) was 98.1% and the residual activity (TTK (human)) was 59.8%. For the same compound, the residual activity (INSR (human)) was 30.1%, the residual activity (RIPK2 (human)) was 84.1% and the residual activity (CAMK4 (human)) was 95%. The residual activity (NEK1 (human)) was 94.7%, the residual activity (NUAK2 (human)) was 70.7% and the residual activity (HCK (human)) was 34.3%. The residual activity (PIM1 (human)) was 91.7%, the residual activity (MET (human)) was 77% and the residual activity (NEK7 (human)) was 99.3%. The residual activity (CSNK1G2 (human)) was 45.2%, the residual activity (CDC42BPB (human)) was 96.1% and the residual activity (MATK (human)) was 96.8%. The residual activity (STK24 (human)) was 22.2%, the residual activity (MUSK (human)) was 63.5% and the residual activity (SLK (human)) was 38%. The residual activity (IKBKE (human)) was 29.4%, the residual activity (DYRK3 (human)) was 81.8% and the residual activity (MAP4K5 (human)) was 0.833%. The residual activity (FYN (human)) was 28.4%, the residual activity (PTK2 (human)) was 25.8% and the residual activity (MST4 (human)) was 73.2%. The residual activity (EPHA2 (human)) was 93.5%, the residual activity (MARK1 (human)) was 18.1% and the residual activity (NTRK3 (human)) was 1.87%. For the same compound, the residual activity (MAPK9 (human)) was 109%, the residual activity (EPHA8 (human)) was 99.5% and the residual activity (ADRBK2 (human)) was 97.8%. It also gave a residual activity (PRKX (human)) of 83.9%, a residual activity (NEK6 (human)) of 97.8% and a residual activity (CAMK2A (human)) of 3.6%.
